# Read-outs that look alike come from different tables or passages of the source.
# Assays:
# [1] = test system: human chronic myeloid leukemia (CML) progenitors; assay: Colony forming cell (CFC) assay on CML patient bone marrow cells, methylcellulose-based medium
# Experimental: An in vitro investigation was performed to determine whether TET has efficacy on human chronic myeloid leukemia (CML) stem-like cells. A colony forming cell (CFC) assay was performed on bone marrow cells from a de-novo CML patient.
# Human bone marrow light density cells derived from CML patient bone marrow (Conversant Bio, Alabama), were stored in the gaseous phase of liquid nitrogen until required. On the day of the experiment, the cells were thawed rapidly, the contents of the vial were diluted in 10 mL of Iscove's Modified Dulbecco's Medium containing 10% fetal bovine serum (IMDM+10% FBS) and washed by centrifugation (approximately 1200 r.p.m. for 10 minutes, room temperature). The supernatant was discarded and the cell pellets resuspended in a known volume of IMDM+10% FBS. A cell count (3% glacial acetic acid) and viability assessment (trypan blue exclusion test) […] Tetrandrine (10 μM) for 14 days. After treatment, primary and secondary colonies were grown and analyzed by qPCR to determine BCR-ABL or ABL only cells.
# Human erythroid (CFU-E and BFU-E) and myeloid (CFU-GM) colony enumeration were performed by trained personnel. In addition, the distribution of colony types as well as general colony and cellular morphology were analyzed. […] For statistical analysis, colony numbers in compound-treated cultures were compared to the solvent control cultures.
# β-catenin = β-catenin protein level in K562 cell extracts by western blot; assay type: cell-based, human; conditions: for β-catenin level in K562 cells: 0.1-40 μM, 24 hours
# Experimental: The second portion was to quantitate the levels of β-catenin protein by western blot. TET's ability in an in vitro assay to reduce β-catenin expression was tested in human erythroleukemic (K562) cells. Testing was conducted by Alamo Laboratories, San Antonia, TX.
# Briefly, the method to quantitate β-catenin protein by western blot was as follows: Extracts of K562 cells (untreated and treated with various concentrations of tetrandrine) were concentrated to 0.4 ml using Centricon-3 column to yield a protein concentration of approximately 2 mg/ml. Samples were mixed with 5× Laemmli buffer and loaded on 8-16% Tris-Glycine gradient gel, then polyacrylamide gel electrophoresis (PAGE) was run at 85 volts for 100 minutes at 6° C. and proteins were transferred on PVDF membrane at 70 Volts for 85 minutes at 8° C. Membrane was blocked with 5% milk in Tris-buffered Saline containing 0.1% TW-20 (TBST). Membrane was incubated with primary antibody for 18 hours at 4° C. followed by 3 washes, 5 minutes each, with TBST and incubated with secondary antibody in TBST for 2 hours at 25° C. The membrane was washed again with TBST as described above and incubated with ECL-2 substrate for 5 minutes and scanned on Kodak Image Station. After scan, blot was stripped of primary and secondary antibodies and re-probed with anti-beta Actin antibody as described above. Protein bands in WB images were quantitated using Molecular Imaging software pack MIS-4.0 software and tabulated in Excel spreadsheet.
# bcr-abl = assay: TaqMan qPCR assay for bcr-abl and abl in plucked CML colonies; assay type: cell-based, human; conditions: 10 μM
# Experimental: To determine whether a colony was normal (bcr-abl negative and abl positive) or diseased (bcr-abl and abl positive), a TaqMan®-based qPCR test was used. In order to score the colonies positive or negative, the following scoring strategy was performed. All colonies were assayed in duplicate for each target. If a singleton reaction yielded a Ct then the reaction scored a 1. If no Ct was recorded, a score of 0 was given. From here, we used a logic test to score the colonies into four different categories: bcr-abl and abl, abl only, bcr-abl only or both negative. In order to be placed in a category, a colony must score a 1 in both reactions. However, if a colony only scored a 1 for one out of the two reactions, this colony was removed from the analysis. If a colony scored a 1 for each reaction (both ber-abl and abl) the colony was placed into the ber-abl and abl category, signifying it as a diseased colony. Alternatively, if a colony scored a 1 in only both of the ber-abl reactions or a 1 in only both the abl reactions, the colony was placed in the ber-abl only or abl only category, respectively. If the colony scored a 0 for both targets (bcr-abl and abl) then the colony was placed in the both negative category.
# In total 48 primary colonies and 31 secondary replated colonies were assessed for bcr-abl and abl using qPCR. […] Thirteen secondary colonies treated with Tetrandrine at 10 μM were assessed.
# hERG = hERG (Homo sapiens, UniProt Q12809); assay: hERG inhibition, IonWorks HT electrophysiology in CHO cells stably transfected with hERG; conditions: for IC50: read-out: hERG IC50, CHO cells stably transfected with hERG, 300 sec contact
# hERG, sequence (Q12809 whole entry): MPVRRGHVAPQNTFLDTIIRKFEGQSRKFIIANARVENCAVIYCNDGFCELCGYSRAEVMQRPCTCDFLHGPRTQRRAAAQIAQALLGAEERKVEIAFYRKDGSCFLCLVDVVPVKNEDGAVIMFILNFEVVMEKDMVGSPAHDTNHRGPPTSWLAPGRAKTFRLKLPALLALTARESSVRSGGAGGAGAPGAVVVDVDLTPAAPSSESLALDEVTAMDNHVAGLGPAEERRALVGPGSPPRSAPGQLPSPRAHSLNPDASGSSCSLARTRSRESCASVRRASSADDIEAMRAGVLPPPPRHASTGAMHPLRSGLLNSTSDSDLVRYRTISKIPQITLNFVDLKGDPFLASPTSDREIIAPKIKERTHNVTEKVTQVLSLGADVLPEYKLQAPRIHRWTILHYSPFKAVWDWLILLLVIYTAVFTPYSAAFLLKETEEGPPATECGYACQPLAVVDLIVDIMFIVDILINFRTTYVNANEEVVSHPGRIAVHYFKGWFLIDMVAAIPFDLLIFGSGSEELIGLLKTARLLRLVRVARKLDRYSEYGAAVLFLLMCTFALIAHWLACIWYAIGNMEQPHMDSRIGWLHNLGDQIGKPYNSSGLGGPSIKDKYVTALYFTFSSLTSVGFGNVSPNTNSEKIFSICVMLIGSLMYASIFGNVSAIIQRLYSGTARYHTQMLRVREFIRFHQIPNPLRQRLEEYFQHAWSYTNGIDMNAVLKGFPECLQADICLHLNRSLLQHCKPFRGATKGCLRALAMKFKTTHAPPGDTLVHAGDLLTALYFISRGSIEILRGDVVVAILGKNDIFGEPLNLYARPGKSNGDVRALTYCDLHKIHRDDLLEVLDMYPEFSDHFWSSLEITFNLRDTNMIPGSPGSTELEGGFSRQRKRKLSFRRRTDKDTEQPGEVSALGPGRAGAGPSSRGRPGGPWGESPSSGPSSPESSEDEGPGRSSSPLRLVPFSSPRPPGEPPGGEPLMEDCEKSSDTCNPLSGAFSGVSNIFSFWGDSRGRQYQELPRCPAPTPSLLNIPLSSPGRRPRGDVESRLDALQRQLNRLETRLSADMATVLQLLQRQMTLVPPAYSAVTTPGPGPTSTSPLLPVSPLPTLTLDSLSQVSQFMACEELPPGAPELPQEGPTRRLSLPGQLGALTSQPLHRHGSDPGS
# Experimental: The purpose of this study was to evaluate the potential of a test article to inhibit hERG. The experiments are performed on an Ion Works™ HT instrument (Molecular Devices Corporation), which automatically performs electrophysiology measurements in […] single cells simultaneously in aspecialized 384-well plate (PatchPlate). All cell suspensions, buffers and test compound solutions are at room temperature during the experiment. The cells used are Chinese hamster ovary (CHO) cells stably transfected with hERG (cell-line obtained from Cytomyx, UK). A single-cell suspension is prepared in extracellular solution (Dulbecco's phosphate buffered saline with calcium and magnesium pH 7-7.2) and aliquots added automatically to each well of a PatchPlate™. The cells are then positioned over a small hole at the bottom of each well by applying a vacuum beneath the plate to form an electrical seal. The vacuum is applied through a single compartment common to all wells which is filled with intracellular solution (buffered to pH 7.2 with HEPES). The resistance of cach seal is measured via a common ground-electrode in the intracellular compartment and individual electrodes placed into each of the upper wells. Electrical access to the cell is then achieved by circulating a perforating agent, amphotericin, underneath the PatchPlate and then measuring the pre-compound hERG current. An electrode is positioned in the extracellular compartment and a holding potential of −80 mV applied for 15 sec. The hERG channels are then activated by applying a depolarizing step to +40 mV for 5 sec and then clamped at −50 mV for 4 sec to elicit the hERG tail current, before returning to −80 mV for 0.3 sec. Test compound is then added automatically to the upper wells of the PatchPlateTM from a 96-well microtitre plate containing a range of concentrations of each compound. […] The test compound is left in contact with the cells for 300 sec before recording currents using the same voltage-step protocol as in the pre-compound scan. […] Each concentration is tested in 4 replicate wells on the PatchPlate™. […] Post-compound currents are then expressed as a percentage of pre-compound currents and plotted against concentration for each compound (FIG. 8). Testing was conducted by Cyprotex US, LLC, Watertown, MA.
# [2] = Primary colonies, of 17 colonies
# [3] = Secondary colonies, of 10 colonies
substance,measurement,setting,value
"6,6′,7,12-tetramethoxy-2,2′-dimethyl-berbaman [ES-3000]",CFU-GM colonies,[1]; 10 μM,26 ± 2
same,Total CFC,[1]; 10 μM,26 ± 2
same,IC50,"[1]; read-out: Myeloid IC50 ± 95% CI, Human progenitors",9.56 ± 1.25 µM
same,β-catenin level in K562 cells,β-catenin; listed as TET,reduced β-catenin
same,β-catenin level in K562 cells,β-catenin; listed as Tetrandrine,lowers the β-catenin level in K562 cells in a dose dependent manner
same,β-catenin band in western blot,β-catenin; K562 cells treated with 0 to 10 uM,A clear β-catenin band was evident
same,β-catenin band in western blot,β-catenin; K562 cells treated with 20 and 40 uM,a convincing β-catenin band was absent
same,beta-catenin level (quantitation of protein bands),β-catenin; K562 cells treated with >10 uM,significantly less
same,abl only colonies,bcr-abl; Primary colonies,1
same,bcr-abl and abl colonies,bcr-abl; Primary colonies,11
same,bcr-abl only colonies,bcr-abl; Primary colonies,1
same,both negative colonies,bcr-abl; Primary colonies,4
same,colonies abl positive only,bcr-abl; [2],5.8%
same,colonies bcr-abl and abl positive,bcr-abl; [2],65%
same,colonies negative for both targets,bcr-abl; [2],23.5%
same,colonies bcr-abl and abl positive,"bcr-abl; Primary colonies, of 17 colonies, listed as Tetrandrine",64.7%
same,abl only colonies,bcr-abl; Secondary colonies,1
same,bcr-abl and abl colonies,bcr-abl; Secondary colonies,0
same,bcr-abl only colonies,bcr-abl; Secondary colonies,0
same,both negative colonies,bcr-abl; Secondary colonies,9
same,colonies negative for both bcr-abl and abl,bcr-abl; [3],90%
same,colonies positive for abl only,bcr-abl; [3],10%
same,IC50,hERG,5.15 µM
same,IC50,hERG; listed as TET,5.2 µM
same,plasma level above which QT prolongation might be expected,hERG; subjects,above 249 ng/mL
same,safety margin for cardiac conduction-related toxicity (hERG IC50 versus human Cmax),hERG; utilizing Cmax from previous human clinical experience,13 fold
